Results on 42 compounds are retold here after patent US10968193B2, “Antidiabetic bicyclic compounds” (Merck Sharp & Dohme Corp., priority 2014, dated 2021).

Where “and” joins values, the source holds several entries; their conditions need not be identical. Identical values can stand only once.

As a reminder, the EC50 is the concentration giving half of the maximal effect. A high value points to a need for much substance.

Assay [1] deals with T1, human GPR40 (Homo sapiens, UniProt O14842).
T1 construct: expressed in transfected cells; host or cells: HEK cells stably expressing the aequorin reporter
T1 sequence (O14842 whole entry): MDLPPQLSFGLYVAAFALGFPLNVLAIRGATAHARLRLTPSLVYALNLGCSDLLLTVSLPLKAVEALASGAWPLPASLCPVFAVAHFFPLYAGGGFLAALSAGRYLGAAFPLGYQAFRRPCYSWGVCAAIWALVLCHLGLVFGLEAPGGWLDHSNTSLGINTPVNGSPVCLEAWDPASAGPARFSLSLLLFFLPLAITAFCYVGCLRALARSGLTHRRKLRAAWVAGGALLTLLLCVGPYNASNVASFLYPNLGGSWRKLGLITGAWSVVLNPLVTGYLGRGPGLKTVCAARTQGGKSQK
Briefly: Inositol Phosphate Turnover (IP1) Assay 2. Type of assay: cell-based. Conditions: HEK cells stably expressing human GPR40; 15,000 cells per well; compound acoustically transferred; CisBio IP-One kit. The protocol:
Human and mouse GPR40 stable cell-lines were generated in CHO cells stably expressing NFAT BLA (Beta-lactamase). A human GPR40 stable cell-line was generated in HEK cells stably expressing the aequorin expressing reporter. The expression plasmids were transfected using lipofectamine (Life Technologies) following manufacturer's instructions. Stable cell-lines were generated following drug selection.
Inositol Phosphate Turnover (IP1) Assay 2:
The assay was performed in 384-well format. HEK cells stably expressing human GPR40 were plated at 15,000 cells per well in growth medium (DMEM/10% fetal calf serum). Cell plates were then incubated 16 hours at 37 degrees in a 5% CO2 incubator.
Measurement of Inositol Phosphate Turnover (IP1) was performed using the CisBio IP-One kit (Part number 62IPAPEB). After the 16 hour incubation, the cells were washed with HEPES buffer and 10 ul of stimulation buffer (prepared as described in the kit) was added to each well. In a separate plate, compounds were diluted in DMSO (400-fold over the final concentration in the assay well) and 25 nl was acoustically transferred to the appropriate well in the assay cell plate. The plates were then incubated for 60 minutes at 37 degrees. 10 ul of detection buffer (also prepared as described in the IP-One kit) was added to each well and the plates were incubated for 60 minutes in the dark. The plates were then read in a Perkin Elmer EnVision or equivalent reader able to measure FRET. Fluorescent ratio of emission at 665 and 620 nm was then converted to IP1 concentration by back calculating from an IP1 standard curve prepared at the time of the assay.

Assay [2] addresses T1, human GPR40. Briefly: Inositol Phosphate Turnover (IP1) Assay 3. Type of assay: cell-based. To be noted: HEK cells stably expressing human GPR40. In a few lines:
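HEK cells stably expressing human GPR40, plated 16 h before, were treated with compound for 60 min at 37 °C in stimulation buffer. IP1 measured by HTRF (665/620 nm ratio) against an IP1 standard curve; activity normalized to a reference compound, EC50 from 4-parameter fit.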

In assay [1], `COc1cc(-c2ccc(C3CCc4ccc([C@H](C5CC5)[C@H](C)C(=O)O)cc4O3)cc2CN(C)CC(F)(F)F)c(F)cn1` (single isomer, unassigned) [Example 22] registered a 50% effective concentration (EC50) of 0.46 nM.
In turn, `COc1cc(-c2ccc(C3CCc4ccc([C@H](C5CC5)[C@H](C)C(=O)O)cc4O3)cc2CN2CC3CC2CO3)c(F)cn1` (stereo partly drawn) [Example 43] displayed an EC50 in assay [1] of 2.1 nM.
Regarding `COc1cc(-c2ccc(C3CCc4ccc([C@H](C5CC5)[C@H](C)C(=O)O)cc4O3)cc2CN2CCCCC23CC3)c(F)cn1` (mixture of isomers) [Example 62], in assay [1], the EC50 was 0.2 nM and 0.99 nM.
Still for that read-out and setting: the figure for `COc1cc(-c2ccc(C3CCc4ccc([C@H](C5CC5)[C@H](C)C(=O)O)cc4O3)cc2CN2CCCC(C)(C)C2)c(F)cn1` (mixture of isomers) [Example 55] is 0.73 nM.
On the same count and under the same terms, the figure for `COc1cc(-c2ccc([C@H]3CCc4ccc([C@H](C5CC5)[C@H](C)C(=O)O)cc4O3)cc2CN2C3CCC2CC3)c(F)cn1` [Example 148] is 4.2 nM.
`COc1cc(-c2ccc(C3CCc4ccc([C@H](C5CC5)[C@H](C)C(=O)O)cc4O3)cc2CN2CC[C@@H](OC)C2)c(F)cn1` (stereo partly drawn) [Example 18] yielded an EC50 in assay [1] of 11 nM.
Still for that read-out and setting: the figure for `COc1cc(-c2ccc(C3CCc4ccc([C@H](C5CC5)[C@H](C)C(=O)O)cc4O3)cc2CN2CC[C@@H](F)C2)c(F)cn1` (single isomer, unassigned) [Example 24] is 2.2 nM.
The same measure, in the same setting: the figure for `COC[C@H]1CCCN1Cc1cc([C@@H]2CCc3ccc([C@H](C4CC4)[C@H](C)C(=O)O)cc3O2)ccc1-c1cc(OC)ncc1F` [Example 164] is 1.6 nM; for `COc1cc(-c2ncc(C3CCc4ccc([C@H](C5CC5)[C@H](C)C(=O)O)cc4O3)nc2CN2CCCC2)c(F)cn1` (stereo partly drawn) [Example 110, (2S,3R)-3-cyclopropyl-3-(2-(5-(5-fluoro-2-methoxypyridin-4-yl)-6-(pyrrolidin-1-ylmethyl)pyrazin-2-yl)chroman-7-yl)-2-methylpropanoic acid] it is 824 nM; for `COc1cc(-c2ccc(C3CCc4ccc([C@H](C5CC5)[C@H](C)C(=O)O)cc4O3)cc2CN2[C@H](C)COC[C@H]2C)c(F)cn1` (stereo partly drawn) [Example 60] it is 0.59 nM.
In the case of `COc1cc(-c2ccc(C3CCc4ccc([C@H](C5CCC5)[C@H](C)C(=O)O)cc4O3)cc2CN(C)C)c(F)cn1` (single isomer, unassigned) [Example 95], the response in assay [1] was half-maximal at 1.8 nM (EC50).
Compound `COC[C@H]1CC[C@H](COC)N1Cc1cc(C2CCc3ccc([C@H](C4CC4)[C@H](C)C(=O)O)cc3O2)ccc1-c1cc(OC)ncc1F` (stereo partly drawn) [Example 65] came in with a concentration giving a half-maximal response (EC50) in assay [1] of 2 nM.
On the same count and under the same terms, with `CCOc1cc(-c2ccc(C3CCc4ccc([C@H](C5CC5)[C@H](C)C(=O)O)cc4O3)cc2CN2CCCC2)c(F)cn1` (mixture of isomers) [Example 74, (2S,3R)-3-cyclopropyl-3-(2-(4-(2-ethoxy-5-fluoropyridin-4-yl)-3-(pyrrolidin-1-ylmethyl)phenyl)chroman-7-yl)-2-methylpropanoic acid] the figure was 9.3 nM.
As to `COc1cc(-c2ccc(C3CCc4ccc([C@H](C5CC5)[C@H](C)C(=O)O)cc4O3)cc2CN2CC(F)C2)c(F)cn1` (mixture of isomers) [Example 47], in assay [1], a half-maximal effect (EC50) was put at 3.5 nM.
On the same count and under the same terms, the figure for `COc1cc(-c2ccc(C3CCc4ccc([C@H](C5CC5)[C@H](C)C(=O)O)cc4O3)cc2CN2CCCC2)c(F)cn1` (single isomer, unassigned) [Example 9b] is 3.4 nM.
Same read-out and setting: the figure for `COc1cc(-c2ccc(C3CCc4ccc([C@H](C5CC5)[C@H](C)C(=O)O)cc4O3)cc2CN2CCCC2)c(F)cn1` (mixture of isomers) [Example 9] is 4.3 nM; for `COc1cc(-c2ccc(C3CCc4ccc([C@H](C5CC5)[C@H](C)C(=O)O)cc4O3)cc2CN2CCC2C)c(F)cn1` (stereo partly drawn) [Example 56] it is 7 nM; for `CNCc1cc(C2CCc3ccc([C@H](C4CC4)[C@H](C)C(=O)O)cc3O2)ccc1-c1cc(OC)ncc1F` (mixture of isomers) [Example 4] it is 310 nM.
Turning to `COc1cc(-c2ccc(C3CCc4ccc([C@H](C5CC5)[C@H](C)C(=O)O)cc4O3)cc2CN(C2CC2)C2CC2)c(F)cn1` (mixture of isomers) [Example 52], the EC50 in assay [1] turned out to be 0.35 nM.
On the same count and under the same terms, with `COc1cc(-c2ccc([C@@H]3CCc4ccc([C@H](C5CC5)[C@H](C)C(=O)O)cc4O3)cc2CN2CCCC2(C)C)c(F)cn1` [Example 160] the figure was 2.5 nM; with `COc1cc(-c2ccc([C@H]3CCc4ccc([C@H](C5CC5)[C@H](C)C(=O)O)cc4O3)cc2CN2CCC(C)(C)CC2)c(F)cn1` [Example 169], 1.7 nM; with `COc1cc(-c2ccc(C3CCc4ccc([C@H](C5CCC5)[C@H](C)C(=O)O)cc4O3)cc2CN(C)C)c(F)cn1` (single isomer, unassigned) [Example 94], 1.8 nM.
On the same count and under the same terms, with `COc1cc(-c2ccc(C3CCc4ccc([C@H](C5CC5)[C@H](C)C(=O)O)cc4O3)cc2CN(C2CC2)C2COC2)c(F)cn1` (mixture of isomers) [Example 53] the figure was 1.7 nM.
Same read-out and setting: with `COc1cc(-c2ccc(C3CCc4ccc([C@H](C5CC5)[C@H](C)C(=O)O)cc4O3)cc2CN2CC[C@@H](F)C2)c(F)cn1` (stereo partly drawn) [Example 16] the figure was 2.3 nM; with `COc1cc(-c2ccc(C3CCc4ccc([C@H](C5CC5)[C@H](C)C(=O)O)cc4O3)cc2CN2CCC[C@@H]2C)c(F)cn1` (stereo partly drawn) [Example 38], 1.8 nM; with `COc1cc(-c2ccc(C3CCc4ccc([C@H](C5CC5)[C@H](C)C(=O)O)cc4O3)cc2CN2CCC(F)(F)C2)c(F)cn1` (single isomer, unassigned) [Example 31], 0.95 nM.
The compound `COc1cc(-c2ccc(C3CCc4ccc([C@H](C5CC5)[C@H](C)C(=O)O)cc4O3)cc2CN(C)C)c(F)cn1` (single isomer, unassigned) [Example 1b] returned a concentration giving a half-maximal response (EC50) in assay [1] of 2.9 nM.
`CCc1ccc(F)c(-c2ccc(C3CCc4ccc([C@H](C5CC5)[C@H](C)C(=O)O)cc4O3)cc2CN2CCCC2)c1` (mixture of isomers) [Example 75] came in with an EC50 in assay [1] of 17 nM.
Still for that read-out and setting: the figure for `COc1cc(-c2ccc([C@@H]3CCc4ccc([C@H](C5CC5)[C@H](C)C(=O)O)cc4O3)cc2CN2C3CCC2CC3)c(F)cn1` [Example 162] is 5.4 nM.
Consider `COc1cc(-c2ccc(C3CCc4ccc([C@H](C5CC5)[C@H](C)C(=O)O)cc4O3)cc2CN2[C@H](C)CC[C@H]2C)c(F)cn1` (stereo partly drawn) [Example 70], for which the response in assay [1] was half-maximal at 0.5 nM (EC50).
Turning to `COc1cc(-c2ccc([C@@H]3CCc4ccc([C@H](C5CC5)[C@H](C)C(=O)O)cc4O3)cc2CN2CCC[C@@H]2C)c(F)cn1` [Example 140], in assay [1], the EC50 came out at 1.8 nM.
Same read-out and setting: the figure for `COc1cc(-c2ccc(C3CCc4ccc([C@H](C5CC5)[C@H](C)C(=O)O)cc4O3)cc2CN2CCn3cncc3C2)c(F)cn1` (mixture of isomers) [Example 40] is 184 nM; for `COc1cc(-c2ccc(C3CCc4ccc([C@H](C5CC5)[C@H](C)C(=O)O)cc4O3)cc2CN2CCCC2)c(F)cn1` (single isomer, unassigned) [Example 9a] it is 3.9 nM.
Consider `COc1cc(-c2ccc(C3CCc4ccc([C@H](C5CC5)[C@H](C)C(=O)O)cc4O3)cc2CN2CCCC(OC)C2)c(F)cn1` (stereo partly drawn) [Example 48], for which the midpoint of the response in assay [1], the EC50, lay at 3.6 nM.
Take `COc1cc(-c2ccc(C3CCc4ccc([C@H](C5CC5)[C@H](C)C(=O)O)cc4O3)cc2CN2CC[C@@H](C(F)(F)F)C2)c(F)cn1` (single isomer, unassigned) [Example 27]: in assay [1], the response was half-maximal at 1.5 nM (EC50).
The compound `COc1cc(-c2ccc(C3CCc4ccc([C@H](C5CC5)[C@H](C)C(=O)O)cc4O3)cc2CN2CCCC23COC3)c(F)cn1` (stereo partly drawn) [Example 265] returned a concentration for a half-maximal effect (EC50) in assay [2] of 0.2 nM.
In assay [2], `COc1cc(-c2ccc(C3CCc4ccc([C@H](C5CCC5)[C@H](C)C(=O)O)cc4O3)cc2CN2CCCC2(C)C)c(F)cn1` (single isomer, unassigned) [Example 108] had an EC50 of 0.1 nM.
On the same count and under the same terms, the figure for `COc1cc(-c2ccc(C3CCc4ccc([C@H](C5CC5)[C@H](C)C(=O)O)cc4O3)c(CN3CCCC[C@H]3C)c2)c(F)cn1` (single isomer, unassigned) [Example 130b] is 0.06 nM; for `COc1cc(-c2ccc(C3CCc4ccc([C@H](C5CC5)[C@H](C)C(=O)O)cc4O3)cc2CNC(C)C)ccn1` (stereo partly drawn) [Example 243] it is 810 nM; for `COc1cc(-c2ccc(C3CCc4ccc([C@H](C5CC5)[C@H](C)C(=O)O)cc4O3)cc2CN(C(C)C)C(C)(C)C)ccn1` (stereo partly drawn) [Example 237] it is 0.17 nM.
The same measure, in the same setting: the figure for `COc1cc(-c2ccc(C3CCc4ccc([C@H](C5CC5)[C@H](C)C(=O)O)cc4O3)cc2CN2CCCC2)ccn1` (stereo partly drawn) [Example 278] is 19 nM; for `COc1cc(-c2ccc(C3CCc4ccc([C@H](C5CC5)[C@H](C)C(=O)O)cc4O3)c(CN(C(C)C)C(C)C)c2)ccn1` (mixture of isomers) [Example 115] it is 0.1 nM.
